Entries after “also recorded” stand apart in the source; their conditions may differ.
Experiments:
Format in all cases: cell-based, human
[1] = tested on: PNET2 cells induced to express AD7c-NTP; assay: Crystal violet viability assay; conditions: 3 mM IPTG-induced AD7c-NTP; relative to un-induced FCS-stimulated and IPTG-induced NGF or PDGF stimulated cultures
Experimental: (§1) To examine the effects of different growth factors on AD7c-NTP expression (and over-expression), the cells were serum-starved for 16 hours, after which IPTG (1-5 mM) was added to the medium. Four hours later, the cells were stimulated with insulin (50 nM), IGF-1 (5 ng/ml), NGF ([…]), or platelet-derived growth factor (PDGF; 5 ng/ml) for 24-72 hours. The cells were analyzed for morphological changes, viability, AD7c-NTP immunoreactivity, and expression of pro-apoptosis genes, survival genes, and phospho-tau.
Viability was measured by a standard crystal violet assay. Crystal violet dye labels only viable cells. The assays were performed with cells seeded into 96-well plates at a density of 2×10^4 cells/well. The absorbances were measured using a Spectracount plate reader (Packard, Meriden, Conn.). The crystal violet absorbances increased linearly with cell density between 10^4 and 5×10^5 cells/well.
Cells were serum-starved for 24 hours. However, since several hours of IPTG stimulation were required to induce AD7c-NTP gene expression or CAT activity, IPTG (3 mM) was added to the cultures after 16 hours of serum-starvation, i.e. 8 hours prior to growth factor stimulation. […]
Increased cell loss associated with insulin-stimulation and AD7c-NTP over-expression Cell viability was quantified using the microculture Crystal violet assay with cells seeded into 96-well plates. […]

[2] = tested on: PNET2 cells induced to express AD7c-NTP; assay: Cell morphology by phase contrast microscopy; conditions: IPTG-induced AD7c-NTP; insulin 50 nM, IGF-1 5 ng/ml, NGF 2.5 ng/ml, PDGF 5 ng/ml; 24-48 hours
Experimental: as §1
Cells were serum-starved for 24 hours. However, since several hours of IPTG stimulation were required to induce AD7c-NTP gene expression or CAT activity, IPTG (3 mM) was added to the cultures after 16 hours of serum-starvation, i.e. 8 hours prior to growth factor stimulation. The cells were stimulated with insulin (50 nM), IGF-1 (5 ng/ml), NGF (2.5 ng/ml), or PDGF (5 ng/ml) and examined by phase contrast microscopy 24-48 hours later. PNET2 cells could be maintained in serum-free medium for 5 to 7 days with insulin, IGF-1, NGF, or PDGF as the only growth stimulus. In addition, each of these growth factors supports DNA synthesis and promotes modest outgrowth of multipolar neurites in PNET2 cells.

Bcl-2 = Bcl-2 expression, Western blot / MICE assay; conditions: PNET2 cells induced to express AD7c-NTP, growth factor stimulated
From the text: (§2) Standard Western blot assays wew used to measure cellular levels of p53, Bcl-2, p21/Waf1, phospho-tau, tau, c-fos, NTP, and activated (phosphorylated) forms of Erk mitogen activated protein (MAP) kinase, amino-terminal c-jun-activated kinase (pJNK), and p38/HOG1. Immunoprecipitation followed by Western blot analysis was used to measure p85 subunit associated with IRS1. For Western blot analysis of p53 Bcl-2, phospho-tau, tau, c-fos, and NTP, the cells were lysed in ice cold radioimmunoprecipitation assay (RIPA) buffer supplemented with protease and phosphatase inhibitors. For the immunoprecipitation studies, Western blot analysis of phospho-Erk, pJNK, and p38, and the PI3 kinase assays, the cells were harvested in Triton lysis buffer supplemented with protease and phosphatase inhibitors. Protein concentrations were measured using the BCA assay (Pierce, Rockford, Ill.). Samples containing 60 μg of protein were fractionated by sodium dodecyl sulfate polyacrylamide gel electrophoresis (SDS-PAGE), then transferred to PVDF membranes, and analyzed by Western immunoblotting. Immunoreactivity was detected with horseradish peroxidase conjugated secondary IgG and PicoWest enhanced chemiluminescence reagents (Pierce Chemical Company, Rockford, Ill.). CAT activity was measured using known methods.
(§3) The MICE assay is known in the art (e.g., as described by de la Monte et al., 1999, Biotechniques 26:107301076). The assay is a rapid and sensitive method for quantifying immunoreactivity in 96-well micro-cultures and combines the advantages of the enzyme-linked immunosorbant assay with immunocytochemical staining to permit sensitive in situ quantification of protein expression with values normalized to cell density. […] Immunoreactivity was detected using horseradish peroxidase conjugated secondary antibody (Pierce, Rockford, Ill.) and the TMB soluble peroxidase substrate (Pierce, Rockford, Ill.). Absorbances were measured at 450 nm using a Spectracount plate reader. […]

phospho-Erk MAPK = assay: Growth factor stimulated phospho-Erk MAPK, Western blot; conditions: for phospho-Erk MAPK level, short-term stimulation: 0-30 minutes stimulation; for phospho-Erk MAPK level, 24 hours: 24 hours of AD7c-NTP induction and growth factor stimulation
From the text: as §2
(§4) The potential mechanisms by which the differential effects of insulin, IGF1 and PDGF might occur were explored by examining pathways, which mediate PNET2 neuronal apoptosis and neuritic sprouting. […] Western blot analysis was performed with cell lysates obtained from cultures stimulated with insulin, IGF1, or PDGF for 0-30 minutes or 24 hours with equivalent protein loading (60 μg/sample). The membranes were probed using antibodies to Erk, phospho-Erk, Jun, and phospho-JNK. […] In contrast, after 24 hours of AD7c-NTP gene induction and growth factor stimulation, high levels of phospho-Erk MAPK were detected in the IGF-1 and PDGF-stimulated cultures, but not in the serum-starved or insulin-stimulated cultures. […] In contrast, the levels of c-fos transcription factor were equally expressed after 24 hours IPTG induction of AD7c-NTP expression and either serum starvation or stimulation with insulin, IGF1 or PDGF.

[3] = tested on: nitric oxide synthase-3 (NOS-3); assay: NOS-3 expression, Western blot; conditions: PNET2 cells induced to express AD7c-NTP; relative to PDGF-stimulated cultures
From the text: as §2, with “methods. […]” for “methods.”

p53 = p53 expression, Western blot / MICE assay; conditions: PNET2 cells induced to express AD7c-NTP, growth factor stimulated
From the text: as §2, §3

phospho-JNK = assay: Growth factor stimulated phospho-JNK, Western blot; conditions: for phospho-JNK level, short-term stimulation: 5-30 min stimulation
From the text: as §2, §4

p21/Waf1 = p21/Waf1 expression, Western blot / MICE assay; conditions: PNET2 cells induced to express AD7c-NTP, growth factor stimulated
From the text: as §2, with “For the immunoprecipitation studies, Western blot analysis of phospho-Erk, pJNK, and p38, and the PI3 kinase assays, the cells were harvested in Triton lysis buffer supplemented with protease and phosphatase inhibitors.” left out
(§5) The MICE assay is known in the art (e.g., as described by de la Monte et al., 1999, Biotechniques 26:107301076). […] Immunoreactivity was detected using horseradish peroxidase conjugated secondary antibody (Pierce, Rockford, Ill.) and the TMB soluble peroxidase substrate (Pierce, Rockford, Ill.). […]

p25 = p25 expression, Western blot / MICE assay; conditions: PNET2 cells induced to express AD7c-NTP
From the text: as §2, with “For the immunoprecipitation studies, Western blot analysis of phospho-Erk, pJNK, and p38, and the PI3 kinase assays, the cells were harvested in Triton lysis buffer supplemented with protease and phosphatase inhibitors.” left out
as §5

phospho-tau = phospho-tau expression, Western blot / MICE assay; conditions: PNET2 cells induced to express AD7c-NTP; relative to PDGF-stimulated cultures
From the text: as §2, with “For the immunoprecipitation studies, Western blot analysis of phospho-Erk, pJNK, and p38, and the PI3 kinase assays, the cells were harvested in Triton lysis buffer supplemented with protease and phosphatase inhibitors.” left out
as §5

[4] = tested on: IRS-1-associated PI3 kinase; assay: IRS-1-associated PI3 kinase activity; conditions: 3 mM IPTG-induced cultures, 30 minutes of stimulation
Experimental: The cells were harvested in Triton lysis buffer supplemented with protease and phosphatase inhibitors. Total PI3K was immunoprecipitated from 500 μg protein in cell lysates using rabbit polyclonal antibodies to the p85 subunit of PI3K and Protein A sepharose. The immunoprecipitants were incubated for 5 minutes at room temperature with 10 μg of sonicated phosphatidylinositol in HEPES buffer (200 mM HEPES, 4 mM EGTA, 4 mM sodium phosphate, pH 7.0). Reactions were initiated by the addition of 5 μCi [α^32p] ATP, 15 mM MgCl2, 150 mM ATP, 1.5 mM Tris-HCl, pH 7.4, and 15 mM NaCl. […] Phosphorylated lipids were analyzed by thin layer chromatography using gel plates pre-coated with 1% oxalate (Merck, White House Station, N.J.). PI3K activity was measured with a phosphorimager.
PI3 kinase is an important mediator of neuronal survival. […] Since insulin and IGF-1 can activate PI3 kinase through the insulin-receptor substrate-1 (IRS-1) or through IRS-1-independent pathways, both IRS1-associated PI3 kinase and total PI3 kinase activities were measured. […] Levels of PI3 kinase activity were measured in anti-phospho-tyrosine (PY) immunoprecipitates. […] Similarly, PI3 kinase activity was readily detected in the PY immunoprecipitates prepared with cells stimulated with insulin or PDGF.

[5] = tested on: PY-PI3 kinase (total PI3 kinase); assay: PI3 kinase activity in anti-phospho-tyrosine (PY) immunoprecipitates
Experimental: The cells were harvested in Triton lysis buffer supplemented with protease and phosphatase inhibitors. Total PI3K was immunoprecipitated from 500 μg protein in cell lysates using rabbit polyclonal antibodies to the p85 subunit of PI3K and Protein A sepharose. The immunoprecipitants were incubated for 5 minutes at room temperature with 10 μg of sonicated phosphatidylinositol in HEPES buffer (200 mM HEPES, 4 mM EGTA, 4 mM sodium phosphate, pH 7.0). Reactions were initiated by the addition of 5 μCi [α^32p] ATP, 15 mM MgCl2, 150 mM ATP, 1.5 mM Tris-HCl, pH 7.4, and 15 mM NaCl. After 10 minutes incubation at 30° C., the reactions were stopped by the addition of HCl to a final concentration of 1.2 N, followed by chloroform/methanol extraction. Phosphorylated lipids were analyzed by thin layer chromatography using gel plates pre-coated with 1% oxalate (Merck, White House Station, N.J.). PI3K activity was measured with a phosphorimager.
PI3 kinase is an important mediator of neuronal survival. The pro-survival effects of PI3K are mediated through activation of Akt (protein kinase B) and phosphorylation of Bad to render it inactivated. Inhibition of PI3 kinase activity is associated with PNET2 cell apoptosis. Therefore, experiments were carried out to determine if growth factor stimulated PI3 kinase activity was inhibited in insulin or IGF-1-stimulated cultures. Such inhibition has been observed following chronic ethanol exposure. Since insulin and IGF-1 can activate PI3 kinase through the insulin-receptor substrate-1 (IRS-1) or through IRS-1-independent pathways, both IRS1-associated PI3 kinase and total PI3 kinase activities were measured. These studies were conducted using insulin or PDGF stimulated cultures in which AD7c-NTP gene expression was induced by 3 mM IPTG stimulation. […] Levels of PI3 kinase activity were measured in anti-phospho-tyrosine (PY) immunoprecipitates. […] Similarly, PI3 kinase activity was readily detected in the PY immunoprecipitates prepared with cells stimulated with insulin or PDGF.

Substance | cell density (crystal violet) [1] | cell morphology [2] | Bcl-2 level (Bcl-2) | phospho-Erk MAPK level, short-term stimulation (phospho-Erk MAPK) | phospho-Erk MAPK level, 24 hours (phospho-Erk MAPK) | NOS-3 level [3] | p53 level (p53) | phospho-JNK level, short-term stimulation (phospho-JNK) | phospho-JNK level, 24 hour time point (phospho-JNK) | p21/Waf1 level (p21/Waf1) | p25 level (p25) | phospho-tau level (phospho-tau) | IRS-1-associated PI3 kinase activity [4] | PY-PI3 kinase activity, short-term ([5]; 5-30 minutes, PDGF versus insulin-stimulated cultures) | PY-PI3 kinase activity, 24 or 48 hours ([5]; 24 or 48 hours of stimulation)
IGF-1: Recombinant human IGF1 purchased from Sigma | significantly reduced cell densities | two populations of cells | intermediate levels; also recorded: reduced levels | increased levels | high levels | increased levels | intermediate levels; also recorded: significantly increased levels | much lower levels | no detectable phospho-JNK expression | significantly increased levels | significantly increased levels | increased levels | – | – | –
NGF: Recombinant human NGF purchased from Sigma | – | extensive neuritic growth with multipolar fine interconnecting processes and minimal evidence of on-going cell death | – | – | – | – | – | – | – | – | – | – | – | – | –
PDGF | – | extensive neuritic growth with multipolar fine interconnecting processes and minimal evidence of on-going cell death | high levels of Bcl-2 | minimal effect | high levels | – | no detectable p53 | much lower levels | no detectable phospho-JNK expression | – | – | – | virtually undetectable | consistently lower | similar

From patent US7319094B2, “Increased and sustained in vivo gene expression using a nucleic acid, histone and amphipathic compound composition” (Rhode Island Hospital, priority 2001, dated 2008)
